Experimental findings from paper PMC8199339, “Propellanes as Rigid Scaffolds for the Stereodefined Attachment of σ-Pharmacophoric Structural Elements to Achieve σ Affinity” (International Journal of Molecular Sciences, 2021) are described below.

The term inhibition denotes the change of the read-out against control, counted positive when it falls. Low readings indicate a weak effect, high ones a strong effect. As usually defined, the Ki is a measure of affinity in units of concentration, obtained from inhibition or displacement.

The target in one test is T1, σ2 receptor (Rattus norvegicus, UniProt Q5U3Y7).
T1 construct: The thawed rat liver membrane preparation; tissue Harlan-Winkelmann, Borchen, Germany (animal organs); host or cells: rat liver membrane homogenate
T1 sequence (Q5U3Y7 1-176): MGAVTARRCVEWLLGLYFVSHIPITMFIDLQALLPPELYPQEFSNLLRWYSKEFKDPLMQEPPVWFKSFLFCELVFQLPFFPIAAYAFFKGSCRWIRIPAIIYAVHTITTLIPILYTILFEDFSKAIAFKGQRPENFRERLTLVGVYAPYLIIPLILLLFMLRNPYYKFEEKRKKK
Description: σ2 receptor binding assay, radioligand [3H]di-o-tolylguanidine, rat liver membrane preparation. Conditions: for inhibition at 1 µM / inhibition of the radioligand binding, σ2: test compound concentration of 1 µM; for Ki: read-out: Ki (nM) σ2.

The target in the next test is T2, σ1 receptor (Cavia porcellus, UniProt Q60492).
T2 construct: thawed membrane preparation of guinea pig brain; tissue Harlan-Winkelmann, Borchen, Germany (animal organs); host or cells: guinea pig brain membrane homogenate
Description: σ1 receptor binding assay, radioligand [3H]-(+)-pentazocine, guinea pig brain membrane preparation. Conditions: for inhibition at 1 µM / inhibition of the radioligand binding, σ1: test compound concentration of 1 µM.

Where [1] appears, read: [3H]-(+)-pentazocine, guinea pig brain, mean of three experiments (± SEM), values without SEM mean of two, read-out: Ki (nM) σ1.
Setting [2] is: approximate statement in text, read-out: σ1 affinity, Ki (in the range of).

Like-named read-outs stand apart in the source and are kept apart here.

T2 sequence (Q60492 whole entry): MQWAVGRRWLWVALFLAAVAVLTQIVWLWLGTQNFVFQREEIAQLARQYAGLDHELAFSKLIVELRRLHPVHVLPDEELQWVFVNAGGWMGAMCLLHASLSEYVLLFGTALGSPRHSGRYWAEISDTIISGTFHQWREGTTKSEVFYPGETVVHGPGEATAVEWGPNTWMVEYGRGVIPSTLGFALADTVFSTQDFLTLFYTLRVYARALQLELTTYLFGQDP

As to `COc1ccc(C)cc1NC(=O)OC1CC23CCCCC2(CC(NCc2ccc(OC)c(OC)c2)C3)C1` (stereo not drawn) [8-anti-4b, [(8-anti-11-anti and 8-anti-11-syn)-11-(3,4-Dimethoxbenzylamino)[4.3.3]propellan-8-yl] N-(2-methoxy-5-methylphenyl)carbamate], the figures for the inhibition at 1 µM at σ2 receptor and at σ1 receptor were 1% and 6%, respectively.

With `COc1ccc(C)cc1NC(=O)OC1CC23CCCCC2(CC(NCc2ccc(C)cc2C)C3)C1` (stereo not drawn) [8-anti-4e, [(8-anti-11-anti and 8-anti-11-syn)-11-(2,4-Dimethylbenzylamino)[4.3.3]propellan-8-yl] N-(2-methoxy-5-methylphenyl)carbamate], the Ki on σ2 receptor was determined as 1100 nM. This molecule also gave an inhibition at 1 µM on σ1 receptor of 0%.

Consider `c1ccc(CNC2CC34CCCCC3(CCC4)C2)cc1` (stereo not shown) [compound 8], for which 1 µM produced 39% inhibition at σ2 receptor. Besides, the Ki on σ1 receptor (setting [1]) was found to be 594 nM. The “reduction of σ1 affinity compared to azapropellane 9a” value at σ1 receptor (compared to 9a) is 35 fold. On σ1 receptor (σ1 over σ2), the “selectivity for the σ1 receptor over the σ2 receptor” value was “at least 10 fold”.

As to `COc1ccc(C)cc1NC(=O)OC1CC23CCCCC2(CC(NCc2ccco2)C3)C1` (mixture of isomers) [8-anti-4i, [(8-anti-11-anti and 8-anti-11-syn)-11-[(Furan-2-yl-mehtyl)amino][4.3.3]propellan-8-yl] N-(2-methoxy-5-methylphenyl)carbamate], the Ki is greater than 6000 nM on σ2 receptor, 924 nM at σ1 receptor (setting [1]) and roughly 1000 nM on σ1 receptor (setting [2]).

With `COc1ccc(C)cc1NC(=O)OC1CC23CCCCC2(CC(NCCO)C3)C1` (stereo not drawn) [8-anti-4s, [(8-anti-11-anti and 8-anti-11-syn)-11-(2-Hydroxyethyl-1-amino)[4.3.3]propellan-8-yl] N-(2-methoxy-5-methylphenyl)carbamate], the inhibition at 1 µM amounted to 0% on σ2 receptor and 12% on σ1 receptor.

For the molecule `COc1ccc(C)cc1NC(=O)N(Cc1ccccc1)C1CC23CCCCC2(CC(O)C3)C1` (stereo not drawn) [anti,anti-22, 1 -Benzyl-1-{(8-anti,11-anti)-11-hydroxy[4.3.3]propellan-8-yl}-3-(2-methoxy-5-methylphenyl)urea], the “inhibition of the radioligand binding, σ2” value (“inhibition … σ2” below) at σ2 receptor (1 µM) is 0%. In addition, the “inhibition of the radioligand binding, σ1” value (shortened to “inhibition … σ1”) on σ1 receptor was 0%.

In the case of `COc1ccc(C)cc1NC(=O)OC1CC23CCCCC2(CC(Nc2ccc(N)cc2)C3)C1` (stereo not drawn) [8-anti-4o, [(8-anti-11-anti and 8-anti-11-syn)-11-(4-Aminophenylamino)[4.3.3]propellan-8-yl] N-(2-methoxy-5-methylphenyl)carbamate], at σ2 receptor, the Ki was determined as 12000 nM. For the same molecule, the inhibition at 1 µM at σ1 receptor turned out to be 16%.

Turning to `OC1CC23CCCCC2(C1)CC(NCc1ccccc1)C3` (mixture of isomers) [11-syn-13, [(8-syn-11-syn and 8-syn-11-anti)-11-(Benzylamino)[4.3.3]propellan-8-ol], at σ2 receptor, 1 µM produced 27% inhibition. Besides, the inhibition constant (Ki) on σ1 receptor (setting [1]) amounted to 619 nM.

As for `COc1ccc(NC2CC34CCCCC3(C2)CC(OC(=O)Nc2cc(C)ccc2OC)C4)cc1Cl` (stereo not drawn) [8-anti-4n, [(8-anti-11-anti and 8-anti-11-syn)-11-(3-Chloro-4-methoxyphenylamino)-[4.3.3]propellan-8-yl] N-(2-methoxy-5-methylphenyl)carbamate], the inhibition at 1 µM on σ2 receptor and on σ1 receptor was 0% each time.

In the case of `COc1ccc(C)cc1NC(=O)OC1CC23CCCCC2(CC(NCc2ccc([N+](=O)[O-])cc2)C3)C1` (stereo not drawn) [8-anti-4g, [(8-anti-11-anti and 8-anti-11-syn)-11-(4-Nitrobenzylamino)[4.3.3]propellan-8-yl] N-(2-methoxy-5-methylphenyl)carbamate], the Ki on σ2 receptor was determined as 1950 nM. The molecule further showed an inhibition at 1 µM on σ1 receptor of 24%.

On to `COc1ccc(C)cc1NC(=O)OC1CC23CCCCC2(CC(NCc2ccc(Cl)c(Cl)c2)C3)C1` (stereo not drawn) [8-anti-4d, [(8-anti-11-anti and 8-anti-11-syn)-11-(3,4-Dichlorobenzylamino)[4.3.3]propellan-8-yl] N-(2-methoxy-5-methylphenyl)carbamate], for which the figures for the inhibition at 1 µM at σ2 receptor and on σ1 receptor were 4% and 0%, respectively.

Turning to `NC1CC23CCCCC2(CCC3)C1` (stereo not shown) [compound 16], the inhibition at 1 µM at σ2 receptor was 13%; on σ1 receptor, 5%.

Consider `COc1ccc(C)cc1NC(=O)OC1CC23CCCCC2(CC(NCCc2c[nH]c4ccccc24)C3)C1` (stereo not drawn) [8-syn-4k, [(8-syn-11-syn and 8-syn-11-anti)-11-[(2-(Indol-3-yl)ethylamino][4.3.3]propellan-8-yl] N-(2-methoxy-5-methylphenyl)carbamate], for which the Ki at σ2 receptor came out at 1400 nM; on σ1 receptor (setting [1]), 983 nM.

As for `O=C(Nc1ccc(F)c(F)c1)NC1CC23CCCCC2(CC(O)C3)C1` (stereo not drawn) [anti,anti-26, 1-(3,4-Difluorophenyl)-3-(8-anti-11-anti-11-hydroxy[4.3.3]propellan-8-yl)urea], the inhibition at 1 µM at σ2 receptor and on σ1 receptor was 0% each time.

Regarding `COc1ccc(C)cc1NC(=O)N(Cc1ccccc1)C1CC23CCCCC2(CC(O)C3)C1` (stereo not drawn) [syn,syn-22, 1-benzyl-1-{(8-syn,11-syn)-11-hydroxy[4.3.3]propellan-8-yl}-3-(2-methoxy-5-methylphenyl)urea], at σ2 receptor (1 µM), the “inhibition … σ2” value is given as 0%. The “inhibition … σ1” value on σ1 receptor amounted to 0%.

At σ2 receptor, `COc1ccc(C)cc1NC(=O)OC1CC23CCCCC2(CC(NCCc2c[nH]c4ccccc24)C3)C1` (stereo not drawn) [8-anti-4k, [(8-anti-11-anti and 8-anti-11-syn)-11-[2-(Indol-3-yl)ethylamino][4.3.3]propellan-8-yl] N-(2-methoxy-5-methylphenyl)carbamate] had an inhibition at 1 µM of 0%. The values for the inhibitory constant (Ki) at σ1 receptor (setting [1]) and on σ1 receptor (setting [2]) were 1200 nM and roughly 1000 nM, respectively.

Turning to `c1ccc(CNC2CC34CCCCC3(C2)CC2(C4)OCCO2)cc1` (stereo not drawn) [syn-14], the “inhibition … σ2” value at σ2 receptor (listed as syn- 14, 1 µM) turned out to be 7%. The Ki on σ1 receptor (setting [1]) is 750 nM.

Take `COc1ccc(C)cc1NC(=O)OC1CC23CCCCC2(CC(Nc2ccccc2)C3)C1` (stereo not drawn) [8-anti-4l, [(8-anti-11-anti and 8-anti-11-syn)-11-(Phenylamino)[4.3.3]propellan-8-yl] N-(2-methoxy-5-methylphenyl)carbamate]: the values for the inhibition at 1 µM at σ2 receptor and on σ1 receptor were 0% and 13%, respectively.

Take `COc1ccc(C)cc1NC(=O)OC1CC23CCCCC2(CC(NCCCCCO)C3)C1` (stereo not drawn) [8-anti-4t, [(8-anti-11-anti and 8-anti-11-syn)-11-(5-Hydroxypentylamino)[4.3.3]propellan-8-yl] N-(2-methoxy-5-methylphenyl)carbamate]: the inhibition at 1 µM at σ2 receptor was 2%. The Ki on σ1 receptor (setting [1]) came to 454 nM.

Regarding `COc1ccc(C)cc1NC(=O)OC1CC23CCCCC2(CC(NCc2cc(C(F)(F)F)cc(C(F)(F)F)c2)C3)C1` (stereo not drawn) [8-anti-4f, [(8-anti-11-anti and 8-anti-11-syn)-11-[(3,5-Bis(trifluoromethyl)benzylamino]-[4.3.3]propellan-8-yl] N-(2-methoxy-5-methylphenyl)carbamate], the inhibition at 1 µM on σ2 receptor and at σ1 receptor was 0% each time.

Take `c1ccc(CNC2CC34CCCCC3(C2)CC2(C4)OCCO2)cc1` (stereo not drawn) [anti-14, (11′-anti)-Spiro-([1,3]dioxolane-2,8′-(N-benzyl[4.3.3]propellan))-11′-amine]: the “inhibition … σ2” value at σ2 receptor (1 µM) worked out at 0%. Besides, the Ki at σ1 receptor (setting [1]) turned out to be 1400 nM.

As for `COc1ccc(C)cc1NC(=O)N(Cc1ccccc1)C1CC23CCCCC2(CC(O)C3)C1` (stereo not drawn) [syn,anti-22, 1 -Benzyl-1-{(8-syn,11-anti)-11-hydroxy[4.3.3]propellan-8-yl}-3-(2-methoxy-5-methylphenyl)urea], the “inhibition … σ2” value at σ2 receptor (1 µM) was 8%. For the same molecule, at σ1 receptor, the “inhibition … σ1” value is recorded as 0%.

Consider `COc1ccc(C)cc1NC(=O)N(Cc1ccccc1)C1CC23CCCCC2(CC(O)C3)C1` (stereo not drawn) [anti,syn-22, 1-benzyl-1-{(8-anti,11-syn)-11-hydroxy[4.3.3]propellan-8-yl}-3-(2-methoxy-5-methylphenyl)urea], for which, on σ2 receptor (1 µM), the “inhibition … σ2” value was 17%. Also, at σ1 receptor, 1 µM produced 0% inhibition.

Turning to `COc1ccc(C)cc1NC(=O)OC1CC23CCCCC2(CC(NCC(C)C)C3)C1` (stereo not drawn) [8-anti-4u, [(8-anti-11-anti and 8-anti-11-syn)-11-(Isobutylamino)[4.3.3]propellan-8-yl] N-(2-methoxy-5-methylphenyl)carbamate], the inhibition constant (Ki) at σ2 receptor stood at 854 nM. 1 µM produced 5% inhibition on σ1 receptor.

As for `O=C1CC23CCCCC2(C1)CC(NC(=O)Nc1ccc(F)c(F)c1)C3` (stereo not drawn) [syn-25, 1-(3,4-. Difluorophenyl)-3-(8-syn-11-oxo[4.3.3]propellan-8-yl)urea], testing at 1 µM on σ2 receptor gave an inhibition of 0%. Also, the “inhibition … σ1” value at σ1 receptor (1 µM) amounted to 10%.

Turning to `COc1ccc(C)cc1NC(=O)OC1CC23CCCCC2(CC(NCc2ccco2)C3)C1` (mixture of isomers) [8-syn-4i, [(8-syn-11-syn and 8-syn-11-anti)-11-[(Furan-2-yl-mehtyl)amino][4.3.3]propellan-8-yl] N-(2-methoxy-5-methylphenyl)carbamate], the inhibition at 1 µM at σ2 receptor is 0%. In addition, the Ki at σ1 receptor (setting [1]) was 276 nM.

On to `O=C1CC23CCCCC2(C1)CC(NC(=O)Nc1ccc(F)c(F)c1)C3` (stereo not drawn) [anti-25, 1-(3,4-Difluorophenyl)-3-(8-anti-11-oxo[4.3.3]propellan-8-yl)urea], for which the “inhibition … σ2” value at σ2 receptor was found to be 0%. The “inhibition … σ1” value at σ1 receptor (1 µM) was determined as 0%.
